Experimental data: ChEMBL document CHEMBL2440116, “Structure-activity relationships of 2-aminothiazoles effective against Mycobacterium tuberculosis” (Bioorg Med Chem, 2013)

Tested on: Mycobacterium tuberculosis
Assay: Induction of resistant in Mycobacterium tuberculosis H37Rv in Middlebrook 7H9 broth with glucose at 10 times MIC after 4 to 5 weeks relative to control
Type: functional

## O=C(Nc1nc(-c2ccccn2)cs1)c1cccc(Br)c1
  fold change (FC): 2
